Measured values reported in patent US20200399392A1, “INHIBITORS OF PLA2-G1B COFACTORS FOR TREATING CANCER” (priority 2018, published 2020).

Tests used:
PLA2-GIB = PLA2-GIB enzymatic assay on [3H] arachidonic acid labelled Jurkat E6.1 T cells; format: cell-based, human
Method: Jurkat E6.1 T cells (ECACC 88042803) or gC1qR KO Jurkat E6.1 T cells were incubated for 17 h at 5×10^5 cells/ml with 1 μCi/ml of arachidonic acid [5,6,8,9,11,14,15-^3H(N)] (Perkin Elmer, NET298Z250UC) in RPMI 1640 medium (Lonza) supplemented with 10% FBS, 50 mM HEPES pH 7.4, glutamine, penicillin, streptomycin and fungizone at 2 ml/well in 6-well plates at 37° C. in a 5% CO2 humidified atmosphere. Cells were washed twice with RPMI with 10% FBS by centrifugation at 300×g for 10 minutes at room temperature and then frozen in 90% FBS 10% DMSO at 10^7 cells/ml/vial at −80° C. Percent of [3H] arachidonic acid in CD4 T cells is the (1 minus ratio of [3H] arachidonic acid in the supernatant of CD4 T cells without cells (cpm/ml) on total [3H] arachidonic acid in supernatant and cells (cpm/ml).
To test PLA2-GIB activity on [3H] arachidonic acid labelled Jurkat E6.1 T lymphocytes, cells were unfrozen in 10% FBS RPMI preheated at 37° C. by centrifugation at 300×g for 10 minutes at room temperature, washed twice in 2.5% FBS RPMI, and equilibrated at 5×10^4 or 10^5 Jurkat E6.1 T cells/400 μl/well in 24-well polystyrene plates for 1 h30 at 37° C. in a 5% CO2 humidified atmosphere. Then HCV core solution or vehicle dilution in 2.5% FBS RPMI at 5.95 μM was mixed with an equal volume of a PLA2GIB solution at 630 nM or 2 μM 2.5% FBS RPMI and 100 μl were added per well at the same time for 2 h. For peptide treatments, cells were pretreated for 2 h, 4 h or 21 h, as indicated on figures, with 50 μl per well of peptide solutions at 110 μM or 55 μM in 2.5% FBS RPMI. Then 50 μl per well of PLA2-GIB at 630 nM or 2 μM 2.5% FBS RPMI or medium alone were added for 2 h. Cells and supernatant were collected in eppendorf tubes and centrifuged at 580×g for 10 minutes at room temperature. The [3H] arachidonic acid released in cell supernatant was quantified in 300 μl with 16 ml of Ultima gold (Perkin Elmer, 6013329) in low diffusion vials (Perkin Elmer, 6000477) on a counter (tri-Carb 2800 TR liquid scintillation analyzer, Perkin Elmer).

pSTAT5 NT in CD4 T cells = experiment: PLA2-GIB bioassay on CD4 T cells: pSTAT5 nuclear translocation in response to IL-7, confocal microscopy; format: cell-based, human
Excerpt: Purification of Human CD4 T-lymphocytes—Venous blood was obtained from healthy volunteers through the EFS (Etablissement Français du Sang, Centre Necker-Cabanel, Paris). CD4 T-cells were purified from whole blood using RosetteSep Human CD4+ T cell Enrichment Cocktail (Stem Cell, 15062). This cocktail contains mouse and rat monoclonal antibodies purified from mouse ascites fluid or hybridoma culture supernatant, by affinity chromatography using protein A or Protein G sepharose. These antibodies are bound in bispecific tetrameric antibody complexes which are directed against cell surface antigens on human hematopoietic cells (CD8, CD16, CD19, CD36, CD56 CD66b, TCRγ/δ) and glycophorin A on red blood cells. The rosetteSep antibody cocktail crosslinks unwanted cells in human whole blood to multiple red blood cells, forming immunorosettes. This increases the density of unwanted cells, such that they pellet along with the free red blood cells when centrifuged over a buoyant density medium such as lymphocytes separation medium (Eurobio, CMSMSL01-01).
Whole blood was incubated with RosetteSep Human CD4+ T cell Enrichment Cocktail at 50 μl/ml for 20 minutes at room temperature under gentle shaking (100 rpm), diluted with an equal volume of PBS+2% foetal bovine serum (FBS) and mixed gently. The diluted samples were centrifuged 20 minutes at 1200×g on top of lymphocytes separation medium. The enriched cells were then collected from the density medium at plasma interface and washed twice with PBS+2% FBS. Cells were subsequently resuspended in RPMI 1640 medium (Lonza) supplemented with 5% FBS, 50 mM HEPES pH 7.4, glutamine, penicillin, streptomycin and fungizone (complete medium), counted with a Moxi Z mini automated cell counter (ORFLO, MXZ000). Cells suspension was adjusted at 7×10^6 cells/ml and equilibrated at least 2 h at 37° C. in a 5% CO2 humidified atmosphere.
The enriched CD4-T cell population was controlled by flow cytometry on a cytoflex (Beckman coulter). The quiescence of recovered CD4 T-cells was controlled by the low level of IL-2Rα (CD25).

gC1qR = target: T1, gC1qR (Homo sapiens, UniProt Q07021); experiment: gC1qR-peptides binding assay (ELISA on microplates); settings: peptide coated, His-tag-gC1qR 0 to 3 μg/well, FIG. 12
T1 sequence (Q07021 74-282): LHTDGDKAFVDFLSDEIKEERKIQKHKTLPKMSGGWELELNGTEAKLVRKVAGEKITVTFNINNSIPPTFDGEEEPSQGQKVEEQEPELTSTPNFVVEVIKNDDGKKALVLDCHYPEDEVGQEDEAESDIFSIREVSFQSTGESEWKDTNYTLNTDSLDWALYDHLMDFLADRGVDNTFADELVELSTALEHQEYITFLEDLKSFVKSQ
Method: The unbound protein was removed; the wells washed 2× with TBST (20 mM Tris-HCl pH 7.5, 150 mM NaCl, and 0.05% Tween-20) and the unreacted sites blocked by incubation (30 min, room temp) with 300 μl of 3% BSA in TBST. After washing (2× with TBST), the microtiter plate bound peptides was incubated (2 h, room temp.) with different amount of His-tag-gC1qR ranging from 0 to 3 μg/well in triplicate. After washing (5 times with TBST), 100 μl of anti-His tag-HRP antibody (1:1000; 71840-3, Merck) in 3% BSA in TBST was added per well and incubated for 2 h at room temperature. Microplates wells were then washed (5 times with TBST) and 100 μl of TMB ELISA substrate standard solution (UP664781, Interchim) was added per well. Reaction was stopped with 100 μl per well of a H2SO4 solution at 0.16M and OD at 450 nm was measured on a microplate reader (Tecan Infinite M1000 Pro).
A scrambled peptide or a control peptide were used as control.

NH2-PWNASWSNKSLDDIW—COOH (H-PWNASWSNKSLDDIW-OH) [PEP3]
PLA2-GIB activity vs scrambled PEP3 (PLA2-GIB; Jurkat E6.1 WT cells, pretreatment 21 h, FIG. 13): increased significantly
PLA2-GIB activity on the membrane of Jurkat E6.1 T cells vs scrambled PEP3 (PLA2-GIB; pretreatment 4 h or more with peptide 11 μM, 200 nM PLA2-GIB, FIG. 11): significantly increased
inhibition of pSTAT5 NT (pSTAT5 NT in CD4 T cells; 0.025 μg/ml of PEP3 with 5 nM of PLA2-GIB, FIG. 5B): 18%
inhibition of pSTAT5 NT (pSTAT5 NT in CD4 T cells; 0.5 μg/ml of PEP3 alone, n=3 donors, FIG. 5C): 5%
effect on pSTAT5 NT (pSTAT5 NT in CD4 T cells; peptide alone, without PLA2-GIB, FIG. 5B): no effect
binding to gC1qR (gC1qR): binds
